Results reported in patent US10752690B2, “Biologically active molecule conjugates, reagents and methods of manufacture, and therapeutic uses” (REGENERON PHARMACEUTICALS, INC., priority 2014, dated 2020).
Residues, ends and D or L forms follow the SMILES beside them.

How the values were obtained:
Format in all cases: cell-based
[1] = system: HEK293; test: In vitro cytotoxicity assay (CCK8 cell viability), native HEK293 cells (no target expressed); conditions: Homo sapiens, HEK293, 72 h
Protocol: (§1) Cells were seeded in Nunclon Delta Surface 96 well plates at 1000 (HEK293 and HEK293/PRLR) or 6000 (T47D) cells per well, and cells were grown overnight in complete growth media. For cell viability curves, serially diluted conjugates or free representative payloads were added to the cells at final concentrations ranging from 100 nM to 5 pM and incubated for 3 days. To measure viability, cells were incubated with CCK8 (Dojindo) for the final 1-3 hours and the absorbance at 450 nm (OD450) was determined on a Victor X4 (PerkinElmer). Background OD450 levels (CCK8) from digitonin ([…]) treated cells were subtracted from all wells and viability is expressed as a percentage of the untreated controls. IC50 values were determined from a four-parameter logistic equation over a 10-point response curve (GraphPad Prism). Maytansinoid conjugate curves and IC50 values are corrected for payload equivalents based on the UV DAR value. For the auristatin (MMAF) conjugate, the IC50 values are assigned a DAR of 1 (i.e., equal to antibody concentration) since a good estimate cannot be obtained by UV or mass spectrometry.

[2] = system: HEK293/hPRLR; test: In vitro cytotoxicity assay (CCK8 cell viability), engineered HEK293/hPRLR cells; conditions: Homo sapiens, HEK293, 72 h
Protocol: as §1

[3] = system: T47D; test: In vitro cytotoxicity assay (CCK8 cell viability), endogenous cell line T47D; conditions: Homo sapiens, 72 h
Protocol: as §1

Measured: IC50

CC[C@H](C)[C@@H]([C@@H](CC(=O)N1CCC[C@H]1[C@H](OC)[C@@H](C)C(=O)N[C@@H](Cc1ccccc1)C(=O)O)OC)N(C)C(=O)[C@@H](NC(=O)[C@@H](NC)C(C)C)C(C)C [compound 27, Monomethyl Auristatin F] (HELM PEPTIDE1{[meV].V.[CC[C@H](C)[C@@H]([C@@H](CC(=O)[*:2])OC)N(C)[*:1]].[CO[C@H]([C@@H](C)C(=O)[*:2])[C@@H]1CCCN1[*:1]].F}$$$$V2.0)
> 100 nM: all assays above
